{
  "source": "patent US20110256579A1",
  "about": "“Method for Verifying and/or Identifying Hormonally Effective Substances” (TECHNISCHE UNIVERSITAET DRESDEN, priority 2008, published 2011)",
  "system": "surface receptors of the a-yeast strain",
  "assay": "Shmoo effect positive control with purified α-factor",
  "type": "cell-based, Saccharomyces cerevisiae",
  "conditions": "BY4741 MATa p423GPD-AR1, p426PGK-MFα1; purified α-factor added",
  "description": "The recognition of the α-factor (yeast pheromone) by surface receptors effects inter alia a directed growth (shmoo effect) of the yeast cells toward the source of the pheromone. Under natural conditions this serves for subsequent fusion with the yeast cell of the opposite mating type.\nTo the positive control purified α-factor is added. […] Based on this control, the androgen-independent induction of the yeast cells can be checked.",
  "data": [
    {"substance": "α-factor", "values": [
      {"measurement": "directed growth (shmoo effect) of the yeast cells", "value": "Directed growth of the yeast cells is observed"}
    ]}
  ]
}
